Data from patent publication US8110570B2, “Modulators of acetyl-coenzyme A carboxylase and methods of use thereof” (Cropsolution, Inc., priority 2008, dated 2012).
pIC50: −log10 of the molar value.

Columns and labels:
hACC2 = molecular target: T1, hACC2 (Homo sapiens, UniProt O00763); assay: [14C]bicarbonate incorporation assay, overall ACC activity; type: biochemical; conditions: recombinant hACC2, overall ACC activity
T1 construct: delete amino acids 1-148 and add Met-Gly in front of Lys149 in the final product; His tag (C); made in house; host or cells: baculovirus, Sf9 insect cells
Description: (§1) In vitro IC50 values of human ACC were determined using recombinant enzyme produced by standard procedures. For example, full-length cDNAs for both the human isoforms (hACC1 and hACC2) were each cloned and expressed as a recombinant protein using a baculovirus system. Double stranded cDNA from human fetal liver (Quick-Clone cDNA, cat. #7171-1) was purchased from BD/Clontech (Mt. View, Calif.). PCR primers were designed for full-length hACC1 and hACC2 using GenBank submissions AY237919 and AJ575592, respectively. The Advantage GC 2 PCR kit (BD/Clontech) was used for amplification. The PCR products (about 7 Kb) were TOPO-cloned into the pCR4Blunt vector (Invitrogen, Carlsbad, Calif.), and 6 clones of each gene were isolated. […] Full length versions of the two cDNAs corresponding to their respective Genbank sequences were assembled in pBluescript SK+ (Stratagene, La Jolla, Calif.) by combining error-free fragments from the PCR clones. The resulting hACC1 clone, designated pCS35, has six silent nucleotide differences compared to Genbank accession AY237919. The final hACC2 clone, designated pCS36, has ten silent nucleotide differences compared to Genbank accession AJ575592. Primers were designed to PCR amplify the cDNAs along with the in-frame 3′-his tag sequences from the pET vector and TOPO-cloned the resulting products into the Gateway® entry vector pENTR/D-TOPO. The ACC2 primers were designed to delete amino acids 1-148 and add Met-Gly in front of Lys149 in the final product. The resulting entry clones were transferred to BaculoDirect™ linear DNA (Invitrogen corp.) using the Gateway® LR recombination reaction. The recombinant baculovirus DNA was transfected into insect cells and viral amplification was performed according to the manufacturer's protocols. For protein expression sf9 cells were infected with a P3 viral stock in the presence of 50 uM biotin. The cells were harvested after 48-72 hr, lysed by sonication, and the resulting extract was clarified by centrifugation. ACC in the crude extract was concentrated by ammonium sulfate precipitation (40% w/v) and purified by Ni^2+-NTA chromatography (Novagen) followed by anion exchange chromatography on a UNO-Q column (BioRad).
(§2) Overall ACC activity in the hACC preparations is measured by following incorporation of [^14C]bicarbonate into […] essentially as described (Thumpy and Wakil, J Biol Chem 260, 6318-6323 (1985). Briefly, the reaction mixture (50 μL) contains: 50 mM Hepes (pH7.4), 20 mM K-Citrate, 20 mM Mg-Acetate 1.5 mM MgSO4, 2 mM DTT, 2 mM acetyl-CoA, 12 mM NaHCO3, 0.2 mM NaH^14CO3 (˜50 mCi/mmol), 0.01% (v/v) Triton X-100, 0.75 mg/mL BSA, 1% (v/v) DMSO (with or without inhibitor), and 0.3 μg (hACC1) or 0.15 μg (hACC2) enzyme. Reactions are initiated by the addition of ATP to a final concentration 2 mM. After 10 minutes at 37° C., the reaction is stopped by the addition of 2N HCl (50 μL). The samples are evaporated in a hood overnight, resuspended in H2O (200 μL), and incorporated label is quantified by scintillation counting in scintillation cocktail (3 mL). Inhibition data are fit to dose-response curves and IC50 values are reported (i.e. the concentration of inhibitor that gives 50% inhibition).

hACC1 = molecular target: T2, hACC1 (Homo sapiens, UniProt Q13085); assay: as above; type: biochemical; conditions: recombinant hACC1, overall ACC activity
T2 construct: PCR primers were designed for full-length hACC1 and hACC2 using GenBank submissions AY237919 and AJ575592, respectively; His tag (C); made in house; host or cells: baculovirus, Sf9 insect cells
Description: as §1, §2

T1 sequence (O00763 149-2458 limits assumed): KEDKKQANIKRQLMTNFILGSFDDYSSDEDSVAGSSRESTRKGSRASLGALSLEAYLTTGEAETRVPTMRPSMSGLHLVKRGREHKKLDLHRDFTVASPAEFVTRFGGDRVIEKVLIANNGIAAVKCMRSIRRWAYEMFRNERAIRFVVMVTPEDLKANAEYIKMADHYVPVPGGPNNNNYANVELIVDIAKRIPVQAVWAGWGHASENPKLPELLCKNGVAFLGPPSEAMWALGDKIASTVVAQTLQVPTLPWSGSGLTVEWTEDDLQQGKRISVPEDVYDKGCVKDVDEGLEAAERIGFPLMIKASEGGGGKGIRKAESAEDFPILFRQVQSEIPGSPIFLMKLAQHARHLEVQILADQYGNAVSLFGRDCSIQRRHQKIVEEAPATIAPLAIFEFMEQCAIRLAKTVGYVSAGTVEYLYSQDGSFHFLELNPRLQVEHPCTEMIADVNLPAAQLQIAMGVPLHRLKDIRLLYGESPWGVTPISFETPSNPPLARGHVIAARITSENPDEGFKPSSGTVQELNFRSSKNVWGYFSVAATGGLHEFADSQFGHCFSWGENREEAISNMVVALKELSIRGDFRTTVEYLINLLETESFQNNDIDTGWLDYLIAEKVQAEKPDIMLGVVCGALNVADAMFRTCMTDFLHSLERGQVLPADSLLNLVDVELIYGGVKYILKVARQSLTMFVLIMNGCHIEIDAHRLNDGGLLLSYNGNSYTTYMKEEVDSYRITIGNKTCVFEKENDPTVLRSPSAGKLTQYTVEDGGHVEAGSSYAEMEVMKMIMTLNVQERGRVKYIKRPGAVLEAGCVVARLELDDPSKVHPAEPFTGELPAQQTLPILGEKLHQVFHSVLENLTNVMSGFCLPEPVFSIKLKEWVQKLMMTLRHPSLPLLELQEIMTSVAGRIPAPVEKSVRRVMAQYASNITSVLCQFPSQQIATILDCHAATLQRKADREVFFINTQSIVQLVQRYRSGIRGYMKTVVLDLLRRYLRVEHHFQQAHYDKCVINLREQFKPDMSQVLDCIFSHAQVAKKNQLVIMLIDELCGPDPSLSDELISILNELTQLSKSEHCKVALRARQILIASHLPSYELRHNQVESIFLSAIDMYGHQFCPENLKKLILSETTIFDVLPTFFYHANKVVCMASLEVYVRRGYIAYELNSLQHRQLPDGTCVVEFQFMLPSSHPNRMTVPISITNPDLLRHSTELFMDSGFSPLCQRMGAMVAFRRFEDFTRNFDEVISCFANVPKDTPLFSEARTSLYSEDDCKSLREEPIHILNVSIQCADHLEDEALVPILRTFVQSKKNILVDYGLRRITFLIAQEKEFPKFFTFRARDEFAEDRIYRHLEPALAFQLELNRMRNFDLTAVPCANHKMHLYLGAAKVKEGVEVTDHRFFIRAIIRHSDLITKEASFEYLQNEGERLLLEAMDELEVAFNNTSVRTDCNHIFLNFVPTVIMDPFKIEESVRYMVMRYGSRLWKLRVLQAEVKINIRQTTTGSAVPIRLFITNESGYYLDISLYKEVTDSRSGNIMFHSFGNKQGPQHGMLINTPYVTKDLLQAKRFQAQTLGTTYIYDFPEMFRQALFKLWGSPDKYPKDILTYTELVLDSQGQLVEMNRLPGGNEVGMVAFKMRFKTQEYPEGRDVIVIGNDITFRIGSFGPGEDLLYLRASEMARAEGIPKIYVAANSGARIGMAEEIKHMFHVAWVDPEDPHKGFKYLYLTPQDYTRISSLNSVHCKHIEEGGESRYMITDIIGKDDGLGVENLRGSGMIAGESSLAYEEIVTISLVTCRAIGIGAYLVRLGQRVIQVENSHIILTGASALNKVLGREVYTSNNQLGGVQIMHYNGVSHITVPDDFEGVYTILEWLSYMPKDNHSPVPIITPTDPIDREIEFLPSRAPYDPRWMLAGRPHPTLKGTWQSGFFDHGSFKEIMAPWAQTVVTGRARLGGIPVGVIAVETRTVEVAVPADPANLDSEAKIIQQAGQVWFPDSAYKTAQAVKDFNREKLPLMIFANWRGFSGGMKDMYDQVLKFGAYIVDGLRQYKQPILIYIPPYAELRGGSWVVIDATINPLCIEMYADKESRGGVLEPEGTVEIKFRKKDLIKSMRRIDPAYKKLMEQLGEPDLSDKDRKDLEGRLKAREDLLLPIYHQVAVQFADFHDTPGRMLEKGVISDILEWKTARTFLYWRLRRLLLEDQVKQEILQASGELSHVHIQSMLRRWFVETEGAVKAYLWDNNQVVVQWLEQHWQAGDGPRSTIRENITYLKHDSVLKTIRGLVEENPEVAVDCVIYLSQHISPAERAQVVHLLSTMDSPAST

Structure (SMILES)	pIC50 (hACC2)	pIC50 (hACC1)
COc1cc2c(OC)cccc2cc1C(=O)N1CCC2(CC1)Oc1ccc(Br)cc1C(=O)N2C [Compound 138, 6-Bromo-1′-[(3,5-dimethoxynaphth-2-yl)carbonyl]-3-methylspiro[2H-1,3-benzoxazin-2,4′-piperidin]-4-(3H)-one]	6.06	5.92
COc1ccc2c(c1)C(=O)NC1(CCN(C(=O)c3cc4c(OC)ccc(OC)c4n3C)CC1)O2 [Compound 181]	–	6.38
COc1cccc2c(C)c(C(=O)N3CCC4(CC3)NC(=O)c3cc(C)ccc3O4)[nH]c12 [Compound 143]	6.72	6.89
COc1cccc2c(C)c(C(=O)N3CCC4(CC3)NC(=O)c3cc(N)ccc3O4)[nH]c12 [Compound 183]	–	6.37
COc1cccc2c(C)c(C(=O)N3CCC4(CC3)NC(=O)c3cc5ccccc5cc3O4)[nH]c12 [Compound 161, 1′-[[7-Methoxy-3-methyl-1H-indol-2-yl)carbonyl]spiro[2H-naphtho[2,3-e]-1,3-oxazin-2,4′-piperidin]-4-(3H)-one]	–	8.10
COc1cccc2c(C)c(C(=O)N3CCC4(CC3)NC(=O)c3cc(NC(C)=O)ccc3O4)[nH]c12 [Compound 24]	7.11	7.00
COc1cc2c(OC)cccc2cc1C(=O)N1CCC2(CC1)NC(=O)c1cc(NC(C)=O)ccc1O2 [Compound 132, 6-Acetamido-1′-[(3,5-dimethoxynaphth-2-yl)carbonyl]spiro[2H-1,3-benzoxazin-2,4′-piperidin]-4-(3H)-one]	6.52	6.10
COc1ccc(OC)c2c1cc(C(=O)N1CCC3(CC1)NC(=O)c1cc(Br)ccc1O3)n2C [Compound 26]	6.23	6.08
COc1cc(C(=O)N2CCC3(CC2)NC(=O)c2cc(C)c(C)cc2O3)nc2c(SC)cccc12 [Compound 154]	7.57	7.52
COc1cc(C(=O)N2CCC3(CC2)NC(=O)c2cc(Br)ccc2O3)nc2c(C3CC3)cccc12 [Compound 32]	6.96	6.74
COc1cc(C(=O)N2CCC3(CC2)NC(=O)c2cc(C)c(C)cc2O3)nc2c(OC)cccc12 [Compound 153]	7.80	7.46
COc1cc(C(=O)N2CCC3(CC2)NC(=O)c2cc(OC(F)(F)F)ccc2N3)nc2c(OC)cccc12 [Compound 195]	–	6.30
COc1cc(C(=O)N2CCC3(CC2)NC(=O)c2cc(Br)ccc2N3)nc2c(SC)cccc12 [Compound 93]	5.96	6.37
COc1cc(C(=O)N2CCC3(CC2)NC(=O)c2cc(Br)ccc2O3)c(OC)c2ccccc12 [Compound 135, 6-Bromo-1′-[(1,4-dimethoxynaphth-2-yl)carbonyl]spiro[2H-1,3-benzoxazin-2,4′-piperidin]-4-(3H)-one]	–	5.66
COc1cc2c(cc1OC)C(=O)NC1(CCN(C(=O)c3cc(OC)c4cccc(OC)c4n3)CC1)N2 [Compound 191]	–	6.72
COc1cccc2ccc(C(=O)N3CCC4(CC3)NC(=O)c3cc(Br)ccc3O4)nc12 [Compound 44]	6.31	6.13
COc1cc(C(=O)N2CCC3(CC2)NC(=O)c2cc4ccccc4cc2O3)nc2c(SC)cccc12 [Compound 158]	8.10	–
COc1ccc2cc3c(cc2c1)C(=O)NC1(CCN(C(=O)c2[nH]c4c(OC)cccc4c2C)CC1)O3 [Compound 166, 7-Methoxy-1′-[[7-methoxy-3-methyl-1H-indol-2-yl)carbonyl]spiro[2H-naphtho[2,3-e]-1,3-oxazin-2,4′-piperidin]-4-(3H)-one]	7.51	7.44
COc1cc(C(=O)N2CCC3(CC2)NC(=O)c2cc(Br)ccc2O3)nc2ccccc12 [Compound 40]	6.05	–
COc1cc2c(cc1OC)C(=O)NC1(CCN(C(=O)c3cc(OC)c4cccc(OC)c4c3)CC1)N2 [Compound 190]	–	7.21
COc1ccc2c(c1)C(=O)NC1(CCN(C(=O)c3cc4c(OC)ccc(OC)c4[nH]3)CC1)O2 [Compound 182]	–	6.80
Cn1nccc1-c1cccc(C(=O)N2CCC3(CC2)NC(=O)c2cc(Br)ccc2O3)c1 [Compound 141, 6-Bromo-1′-[3-(1-methyl-1H-pyrazol-5-yl)benzoyl]spiro[2H-1,3-benzoxazin-2,4′-piperidin]-4-(3H)-one]	5.89	–
COc1cc(C(=O)N2CCC3(CC2)NC(=O)c2cc(N4CCOCC4)ccc2O3)cc2c(OC)cccc12 [Compound 197]	–	8.40
COc1cc(C(=O)N2CCC3(CC2)NC(=O)c2cc(Br)ccc2O3)nc2c(C(C)C)cccc12 [Compound 134]	–	5.33
COc1ccc2c(c1)C(=O)NC1(CCN(C(=O)c3[nH]c4c(OC)cccc4c3C)CC1)N2 [Compound 189, 6′-Methoxy-1-[[7-methoxy-3-methyl-1H-indol-2-yl)carbonyl]spiro-[piperidine-4,2′(1′H)-quinazolin]-4′-(3′H)-one]	–	6.30
COc1cc(C(=O)N2CCC3(CC2)NC(=O)c2cc(C)ccc2N3)cc2c(OC)cccc12 [Compound 192]	–	6.80

Further lines, results first:

pIC50 (hACC2)	pIC50 (hACC1)	Structure (SMILES)
7.85	7.55	COc1cc(C(=O)N2CCC3(CC2)NC(=O)c2cc(Cl)ccc2O3)cc2c(OC)cccc12 [Compound 171]
7.07	6.96	COc1cc(C(=O)N2CCC3(CC2)NC(=O)c2cc(OC(C)C)ccc2O3)cc2[nH]ncc12 [Compound 230]
–	8.22	COc1cc(C(=O)N2CCC3(CC2)NC(=O)c2cc(OC(F)(F)F)ccc2O3)cc2c(OC)cccc12 [Compound 173]
–	7.68	COc1cc(C(=O)N2CCC3(CC2)NC(=O)c2cc(OC(F)(F)F)ccc2O3)cc2c(SC)cccc12 [Compound 175]
–	7.42	COc1cc(C(=O)N2CCC3(CC2)NC(=O)c2cc(C(C)C)ccc2O3)cc2c(SC)cccc12 [Compound 179]
7.32	7.48	COc1ccc2c(c1)C(=O)NC1(CCN(C(=O)c3cc(OC)c4cccc(SC)c4n3)CC1)O2 [Compound 157]
–	8.22	COc1cc(C(=O)N2CCC3(CC2)NC(=O)c2cc(OC(C)C)ccc2O3)cc2c(OC)cccc12 [Compound 170]
–	8.30	CCOc1ccc2c(c1)C(=O)NC1(CCN(C(=O)c3cc(OC)c4cccc(SC)c4c3)CC1)O2 [Compound 176]
8.52	8.21	COc1cc(C(=O)N2CCC3(CC2)NC(=O)c2cc(NC(C)=O)ccc2O3)cc2c(OC)cccc12 [Compound 31, 6-Acetamido-1′-[(4,8-dimethoxynaphth-2-yl)carbonyl]spiro[2H-1,3-benzoxazin-2,4′-piperidin]-4-(3H)-one]
–	7.15	COc1cc(C(=O)N2CCC3(CC2)NC(=O)c2cc(OC(F)(F)F)ccc2N3)cc2c(OC)cccc12 [Compound 194]
8.40	8.30	COc1cc(C(=O)N2CCC3(CC2)NC(=O)c2cc(C)c(C)cc2O3)cc2c(OC)cccc12 [Compound 155, 1′-[(4,8-Dimethoxynaphth-2-yl)carbonyl]-6,7-dimethylspiro[2H-1,3-benzoxazin-2,4′-piperidin]-4-(3H)-one]
–	8.30	COc1ccc2c(c1)C(=O)NC1(CCN(C(=O)c3cc(OC)c4cccc(SC)c4c3)CC1)O2 [Compound 177]
–	8.30	COc1ccc2cc3c(cc2c1)C(=O)NC1(CCN(C(=O)c2cc(OC)c4cccc(OC)c4c2)CC1)O3 [Compound 162]
–	7.85	COc1cc(C(=O)N2CCC3(CC2)NC(=O)c2cc(C(C)C)ccc2O3)cc2c(OC)cccc12 [Compound 178]
